Test results as given in patent publication US20260224680A1, “COMPOSITIONS FOR INDUCING OR RESCUING GLYCOLYSIS AND METHODS OF USE THEREOF” (Arizona Board of Regents on behalf of Arizona State …, priority 2023, published 2026).

Experiments:
B16F10 cancer cells = assay: Proliferation assay using MTT, B16F10; format: cell-based, mouse; details: in vitro
DCs [1] = assay: DC activation by flow cytometry in vitro; format: cell-based, mouse; details: in the presence of poly(IC); PFK15 conc.=25 μM
From the text: (§1) Data represented as mean±std error.
To test if F16BP MPs can modulate the function of DCs, mRNA-based and peptide-based vaccine F16BP MPs were formulated. These vaccines were generated by intercalating di-phosphorylated melanoma peptide antigen Tyrosine related protein 2 (pTRP2), and poly(IC) and mRNA derived from melanoma cells, which contain several phosphate groups in their backbone (FIG. 12). Since pTRP2p, and poly(IC) have phosphate groups, these molecules can be incorporated into the F16BP MPs using the calcium-phosphate chemistry. The amount of pTRp2, and poly(IC) incorporated within the F16BP MPs was determined to be 78±3.4, and 50.9±7.9 μg, respectively. Next, F16BP MPs intercalated with poly(IC) and pTRP2 were incubated with DCs overnight, and flow cytometry was utilized to test if these particles could activate DCs (FIG. 2I and FIG. 2J).

YUMM1.1 cancer cells = assay: Proliferation assay using MTT, YUMM1.1; format: cell-based, mouse; details: in vitro
B16F10 tumors = assay: B16F10 melanoma model, adoptive transfer of Vacc DCs with PFK15; format: in vivo, mouse; details: day 16; vs no treatment control
Experimental: To test the versatility of the F16BP-PFK15 system, another aggressive B16F10 melanoma model was chosen (FIG. 4A). In this model, DCs were loaded with F16BP MPs intercalated with mRNA isolated from B16F10 cancer cells, and poly(IC) (Vacc DCs) and adoptively transferred in mice containing B16F10 tumors. This cellular therapy's ability to modulate adaptive immune responses, reduced tumor growth, and improve survival were measured.
To test if the metabolic rescue in DCs can be applied to adoptive cell therapy, adoptive transfer of DC-vaccines was tested in mice (FIG. 16). […] Specifically, 0.75×10^6 B16F10 cells were injected in C57BL/6j immunocompetent mice, and PFK15 was injected every alternate day for the duration of the study (FIG. 16). Moreover, ex vivo DCs loaded with F16BP(mRNA+poly(IC)) (Vacc DCs) or DCs loaded with F16BP MPs were adoptively transferred using retro-orbital injections (RO) on days 6 and 19 (FIG. 15).
To test if the Vacc DCs could modulate the immune responses after their administration, on day 16, spleen, lymph nodes, and tumors were isolated from different conditions and stained for the activation profile of DCs, and T cells. […]
Since Vacc DCs are administered systemically, spleen and cervical lymph nodes were also analysed for the changes in innate and adaptive immune responses (FIG. 19 through FIG. 22).

DCs [2] = assay: Extracellular flux assays on DCs in vitro (ECAR, respiration); format: cell-based, mouse
Experimental: as §1
Next, the ability of the F16BP MPs to rescue glycolysis in DCs in the presence of glycolytic inhibitor PFK15 was evaluated using extracellular flux assays. DCs were cultured with either PFK15, F16BP MPs, soluble fructose-6-phosphate (F6P—upstream of PFKFB3) or PFK15+F16BP MPs, or individual components of the F16BP MPs for 2 hr, and extracellular acidification rate (ECAR—rate of glycolysis) measurements were obtained. […] This is important since under conditions of inflammation, DCs need to perform enhanced levels of glycolysis to support the inflammatory protein production.

[3] = DCs cultured 2 hr, vs no treatment control

Which “proliferation of B16F10 cancer cells” value (B16F10 cancer cells) does the source give for `O=C(/C=C/c1ccc2ccccc2n1)c1ccncc1` [PFK15] here?
Its value is “effective in preventing proliferation”.

And the “activation of DCs (CD80+CD86+ in CD11c+)” value (DCs [1])?
Its value is “able to decrease”.

What about the “proliferation of YUMM1.1 cancer cells” value (YUMM1.1 cancer cells) of the same molecule?
The value was “effective in preventing proliferation”.

What about the “total number of CD8+ T cells in the tumor” value (B16F10 tumors) of the same molecule?
The value was “significantly decreased”.

What about the “glycolysis (ECAR)” value (DCs [2]; [3]) of the same molecule?
Its value is “lower than no treatment control”.

What about the “glycolytic capacity (ECAR)” value (DCs [2]; [3]) of the same molecule?
The value was “lower than no treatment control”.

And the “glycolysis (ECAR)” value (DCs [2]; in the presence of poly(IC))?
The value was “decreased”.

And the “glycolytic capacity (ECAR)” value (DCs [2]; in the presence of poly(IC))?
Its value is “decreased”.
